IC50 data for 42 compounds are collected here from patent US20050148627A1, “Benzopyran compounds for use in the treatment and prevention of inflammation related conditions” (priority 2003, published 2005).

“And” between values parts separate entries of the source, which are not always exact repeats. Equal entries are not always repeated.

In the assay the target is COX-1 (Homo sapiens, UniProt P23219). Kind of assay: biochemical.
COX-1, sequence (P23219 24-599): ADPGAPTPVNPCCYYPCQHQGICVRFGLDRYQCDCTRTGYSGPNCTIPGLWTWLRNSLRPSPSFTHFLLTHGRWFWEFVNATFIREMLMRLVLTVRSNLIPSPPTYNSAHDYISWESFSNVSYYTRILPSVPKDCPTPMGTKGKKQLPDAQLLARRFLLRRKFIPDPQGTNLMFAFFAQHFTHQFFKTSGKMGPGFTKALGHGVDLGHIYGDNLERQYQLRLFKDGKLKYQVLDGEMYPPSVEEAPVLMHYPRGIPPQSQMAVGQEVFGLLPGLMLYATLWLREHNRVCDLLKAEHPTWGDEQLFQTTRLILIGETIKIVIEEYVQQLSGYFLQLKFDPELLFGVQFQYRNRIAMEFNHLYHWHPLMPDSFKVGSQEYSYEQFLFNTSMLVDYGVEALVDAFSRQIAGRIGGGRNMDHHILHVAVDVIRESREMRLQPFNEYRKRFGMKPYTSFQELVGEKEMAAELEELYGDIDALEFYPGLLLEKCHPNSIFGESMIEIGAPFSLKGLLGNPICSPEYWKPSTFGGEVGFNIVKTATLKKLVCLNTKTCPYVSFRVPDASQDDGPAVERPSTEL

Method: Evaluation of COX-1 and COX-2 Activity In Vitro
b. Assay for COX-1 and COX-2 Activity
COX activity was assayed as PGE2 formed/μg protein/time using an ELISA to detect the prostaglandin released. CHAPS-solubilized insect cell membranes containing the appropriate COX enzyme were incubated in a potassium phosphate buffer (50 mM, pH 8.0) containing epinephrine, phenol, and heme with the addition of arachidonic acid (10 μM). Compounds were pre-incubated with the enzyme for 10-20 minutes prior to the addition of arachidonic acid. […] The PGE2 formed was measured by standard ELISA technology (Cayman Chemical).

The term IC50 denotes the concentration at which inhibition is half-maximal. Read a high IC50 as weaker potency in that assay. In the case of `CC1CC(C)CN(c2cc3c(cc2Cl)C=C(C(=O)O)C(C(F)(F)F)O3)C1` (stereo not drawn) [Example 8a, 6-chloro-7-(3,5-dimethylpiperidin-1-yl)-2-(trifluoromethyl)-2H-chromene-3-carboxylic acid], the 50% inhibitory concentration (IC50) was > 100 µM and 57.2 µM.
As for `CCOc1c(Cl)c(Br)c(Cl)c2c1OC(C(F)(F)F)C(C(=O)O)=C2` (stereo not drawn) [Example 27, 6-bromo-5,7-dichloro-8-ethoxy-2-(trifluoromethyl)-2H-chromene-3-carboxylic acid], the figure is > 100 µM and 198 µM; as for `O=C(O)C1=Cc2ccc(OCc3ccco3)cc2OC1C(F)(F)F` (stereo not drawn) [Example 5f, 7-(2-furylmethoxy)-2-(trifluoromethyl)-2H-chromene-3-carboxylic acid], over 100 µM; as for `CCCCc1cc2c(cc1Cl)C=C(C(=O)O)C(C(F)(F)F)O2` (stereo not drawn) [Example 9a, 7-butyl-6-chloro-2-(trifluoromethyl)-2H-chromene-3-carboxylic acid], 9.97 µM and 5.11 µM and 9.72 µM and 5.97 µM and 8.31 µM and 9.5 µM and > 1.2 µM.
Under `Cc1cc(C)c2c(c1Cl)C=C(C(=O)O)C(C(F)(F)F)O2` (stereo not drawn) [Example 33, 5-chloro-6,8-dimethyl-2-(trifluoromethyl)-2H-chromene-3-carboxylic acid] stands 8.28 µM and 6.09 µM and 43.4 µM and 18.5 µM; under `Cc1cc(Cl)c(C)c2c1OC(C(F)(F)F)C(C(=O)O)=C2` (stereo not drawn) [Example 105, 6-chloro-5,8-dimethyl-2-(trifluoromethyl)-2H-chromene-3-carboxylic acid], 3.32 µM and 2 µM; under `O=C(O)C1=Cc2cc(Cl)c(OCC3CCCC3)c(Cl)c2OC1C(F)(F)F` (stereo not drawn) [Example 1c, 6,8-dichloro-7-(cyclopentylmethoxy)-2-(trifluoromethyl)-2H-chromene-3-carboxylic acid], 0.543 µM and 0.143 µM.
Take `Cc1cc2c(c(C)c1Cl)C=C(C(=O)O)C(C(F)(F)F)O2` (stereo not drawn) [Example 100, 6-chloro-5,7-dimethyl-2-(trifluoromethyl)-2H-chromene-3-carboxylic acid]: the IC50 is 30.2 µM and 29.4 µM.
Under `COc1ccc(Cc2cc3c(cc2Cl)C=C(C(=O)O)C(C(F)(F)F)O3)cc1` (stereo not drawn) [Example 9q, 6-chloro-7-(4-methoxybenzyl)-2-(trifluoromethyl)-2H-chromene-3-carboxylic acid] stands 99.9 µM; under `N#Cc1cc(OC(F)(F)F)cc2c1OC(C(F)(F)F)C(C(=O)O)=C2` (stereo not drawn) [Example 21p, 8-cyano-6-(trifluoromethoxy)-2-(trifluoromethyl)-2H-chromene-3-carboxylic acid], 39.2 µM.
Under `O=C(O)C1=Cc2cc(Br)c(Cc3ccccc3)cc2OC1C(F)(F)F` (stereo not drawn) [Example 41, 7-benzyl-6-bromo-2-(trifluoromethyl)-2H-chromene-3-carboxylic acid] stands 14.6 µM and 12.9 µM; under `CCC(CC)COc1cc2c(cc1Cl)C=C(C(=O)O)C(C(F)(F)F)O2` (stereo not drawn) [Example 2c, 6-chloro-7-(2-ethylbutoxy)-2-(trifluoromethyl)-2H-chromene-3-carboxylic acid], 51.6 µM; under `COc1ccc(Cc2cc3c(cc2Cl)C=C(C(=O)O)C(C(F)(F)F)O3)cc1Cl` (stereo not drawn) [Example 9r, 6-chloro-7-(3-chloro-4-methoxybenzyl)-2-(trifluoromethyl)-2H-chromene-3-carboxylic acid], 80.8 µM.
As for `O=C(O)C1=Cc2ccc(-c3ccco3)cc2OC1C(F)(F)F` (stereo not drawn) [Example 12, 7-(2-furyl)-2-(trifluoromethyl)-2H-chromene-3-carboxylic acid], the figure is over 100 µM; as for `CCCCOc1cccc2c1OC(C(F)(F)F)C(C(=O)O)=C2` (stereo not drawn) [Example 25f, 8-butoxy-2-(trifluoromethyl)-2H-chromene-3-carboxylic acid], over 100 µM.
In the case of `CCC(C)Sc1cc2c(cc1Cl)C=C(C(=O)O)C(C(F)(F)F)O2` (stereo not drawn) [Example 7g, 7-(sec-butylthio)-6-chloro-2-(trifluoromethyl)-2H-chromene-3-carboxylic acid], the IC50 was 7.2 µM and 6.35 µM.
Under `Cc1cc(C)c(Cc2cc3c(cc2Cl)C=C(C(=O)O)C(C(F)(F)F)O3)cc1Cl` (stereo not drawn) [Example 9t, 6-chloro-7-(5-chloro-2,4-dimethylbenzyl)-2-(trifluoromethyl)-2H-chromene-3-carboxylic acid] stands 5.5 µM; under `COc1c(Cl)c(Cl)c(Br)c2c1OC(C(F)(F)F)C(C(=O)O)=C2` (stereo not drawn) [Example 30, 5-bromo-6,7-dichloro-8-methoxy-2-(trifluoromethyl)-2H-chromene-3-carboxylic acid], 193 µM and > 100 µM; under `CC(C)(C)c1cc(Cl)c2c(c1)C=C(C(=O)O)C(C(F)(F)F)O2` (stereo not drawn) [Example 35, 6-tert-butyl-8-chloro-2-(trifluoromethyl)-2H-chromene-3-carboxylic acid], 2.87 µM.
Under `CCCN(CC1CC1)c1cc2c(cc1Cl)C=C(C(=O)O)C(C(F)(F)F)O2` (stereo not drawn) [Example 8g, 6-chloro-7-[(cyclopropylmethyl)(propyl)amino]-2-(trifluoromethyl)-2H-chromene-3-carboxylic acid] stands > 100 µM and 194 µM; under `O=C(O)C1=Cc2c(cc3c(c2Cl)OCO3)OC1C(F)(F)F` (stereo not drawn) [Example 119, 9-chloro-6-(trifluoromethyl)-6H-[1,3]dioxolo[4,5-g]chromene-7-carboxylic acid], over 500 µM.
As for `CCSc1cc2c(cc1Cl)C=C(C(=O)O)C(C(F)(F)F)O2` (stereo not drawn) [Example 7a, 6-chloro-7-(ethylthio)-2-(trifluoromethyl)-2H-chromene-3-carboxylic acid], the figure is over 100 µM.
Compound `CC1CCN(c2cc3c(cc2Cl)C=C(C(=O)O)C(C(F)(F)F)O3)CC1` (stereo not drawn) [Example 8d, 6-chloro-7-(4-methylpiperidin-1-yl)-2-(trifluoromethyl)-2H-chromene-3-carboxylic acid] gave an IC50 of over 100 µM.
Under `O=C(O)C1=Cc2cccc(OCc3ccoc3)c2OC1C(F)(F)F` (stereo not drawn) [Example 25h, 8-(3-furylmethoxy)-2-(trifluoromethyl)-2H-chromene-3-carboxylic acid] stands > 100 µM and 72.3 µM; under `COCC(C)(C)c1cc2c(cc1Cl)C=C(C(=O)O)C(C(F)(F)F)O2` (stereo not drawn) [Example 116, 6-chloro-7-(2-methoxy-1,1-dimethylethyl)-2-(trifluoromethyl)-2H-chromene-3-carboxylic acid], over 100 µM; under `CCCCC(C)(C)c1ccc2c(c1)OC(C(F)(F)F)C(C(=O)O)=C2` (stereo not drawn) [Example 109, 7-(1,1-dimethylpentyl)-2-(trifluoromethyl)-2H-chromene-3-carboxylic acid], 0.413 µM and < 0.137 µM.
Under `CCc1ccc2c(c1)C=C(C(=O)O)C(C(F)(F)F)O2` (stereo in doubt) [Example 34c, (2R)-6-ethyl-2-(trifluoromethyl)-2H-chromene-3-carboxylic acid] stands over 100 µM.
Under `CC(C)c1cc2c(cc1Cl)C(Cl)=C(C(=O)O)C(C(F)(F)F)O2` (stereo not drawn) [Example 9g, 4,6-dichloro-7-isopropyl-2-(trifluoromethyl)-2H-chromene-3-carboxylic acid] stands 24.2 µM and 25.1 µM; under `COc1c(Cl)cc2c(c1C)OC(C(F)(F)F)C(C(=O)O)=C2` (stereo not drawn) [Example 3a, 6-chloro-7-methoxy-8-methyl-2-(trifluoromethyl)-2H-chromene-3-carboxylic acid], over 100 µM; under `CC(C)(C)CCOc1cc2c(cc1Cl)C=C(C(=O)O)C(C(F)(F)F)O2` (stereo not drawn) [Example 2e, 6-chloro-7-(3,3-dimethylbutoxy)-2-(trifluoromethyl)-2H-chromene-3-carboxylic acid], 68.8 µM.
The compound `Cc1cc(Cl)cc2c1NC(C(F)(F)F)C(C(=O)O)=C2` (stereo not drawn) [Example 47, 6-chloro-8-methyl-2-(trifluoromethyl)-1,2-dihydroquinoline-3-carboxylic acid] displayed an IC50 of over 500 µM.
In the case of `Cc1ccc(Cc2cc3c(cc2Cl)C=C(C(=O)O)C(C(F)(F)F)O3)cc1` (stereo not drawn) [Example 9x, 6-chloro-7-(4-methylbenzyl)-2-(trifluoromethyl)-2H-chromene-3-carboxylic acid], the IC50 is 5.59 µM and 10.3 µM.
As for `CC(C)(C)Oc1c(Cl)cc2c(c1Cl)OC(C(F)(F)F)C(C(=O)O)=C2` (stereo not drawn) [Example 1h, 7-tert-butoxy-6,8-dichloro-2-(trifluoromethyl)-2H-chromene-3-carboxylic acid], the figure is under 0.137 µM; as for `CCCCOc1c(Cl)cc2c(c1C)OC(C(F)(F)F)C(C(=O)O)=C2` (stereo not drawn) [Example 3f, 7-butoxy-6-chloro-8-methyl-2-(trifluoromethyl)-2H-chromene-3-carboxylic acid], 7.09 µM and 9.55 µM and 9.09 µM.
As to `COc1cc(Cl)c2c(c1)C=C(C(=O)O)[C@H](C(F)(F)F)O2` (single isomer, unassigned) [Example 17h], the IC50 is over 100 µM.
`CC(c1ccccc1)c1ccc2c(c1)OC(C(F)(F)F)C(C(=O)O)=C2` (stereo not drawn) [Example 37b, 7-(1-phenylethyl)-2-(trifluoromethyl)-2H-chromene-3-carboxylic acid] registered an IC50 of over 100 µM.
As for `CCC(CC)COc1ccc(Cl)c2c1OC(C(F)(F)F)C(C(=O)O)=C2` (stereo not drawn) [Example 23b, 5-chloro-8-(2-ethylbutoxy)-2-(trifluoromethyl)-2H-chromene-3-carboxylic acid], the figure is 159 µM and > 100 µM.
As for `Cc1c(OCC2CC2)c(Cl)cc2c1OC(C(F)(F)F)C(C(=O)O)=C2` (stereo not drawn) [Example 3d, 6-chloro-7-(cyclopropylmethoxy)-8-methyl-2-(trifluoromethyl)-2H-chromene-3-carboxylic acid], the figure is under 0.137 µM; as for `CSc1cc(Cl)cc2c1OC(C(F)(F)F)C(C(=O)O)=C2` (stereo not drawn) [Example 44, 6-chloro-8-(methylthio)-2-(trifluoromethyl)-2H-chromene-3-carboxylic acid], 0.185 µM and 0.12 µM and < 0.137 µM; as for `COc1ccc(Br)c2c1OC(C(F)(F)F)C(C(=O)O)=C2` (stereo not drawn) [Example 24a, 5-bromo-8-methoxy-2-(trifluoromethyl)-2H-chromene-3-carboxylic acid], over 500 µM.
As for `Nc1ccc(Oc2cccc3c2OC(C(F)(F)F)C(C(=O)O)=C3)c(F)c1` (stereo not drawn) [Example 25b, 8-(4-amino-2-fluorophenoxy)-2-(trifluoromethyl)-2H-chromene-3-carboxylic acid], the figure is < 0.686 µM and < 0.137 µM and 0.14 µM; as for `COc1cc(Cl)c2c(c1Cl)C=C(C(=O)O)C(C(F)(F)F)O2` (stereo not drawn) [Example 18a, 5,8-dichloro-6-methoxy-2-(trifluoromethyl)-2H-chromene-3-carboxylic acid], under 0.137 µM.
